Measured values published in patent US9403756B2, “N-phenyl anthranilic acid derivatives and uses thereof” (Ramot at Tel-Aviv University Ltd., priority 2007, dated 2016).
“Also recorded” adds a separate entry of the source.

Key:
Kv 7.1 = target: T1, Kv 7.1 (Homo sapiens, UniProt P51787); assay: Kv channel selectivity, Xenopus oocytes: Kv7.1; type: cell-based; conditions: for Fold current amplitude: +30 mV, Xenopus oocytes
T1 construct: expressed in transfected cells; host or cells: Xenopus oocytes
Description: (§1) Voltage-clamp measurements in Xenopus oocytes were performed as previously described.
(§2) The selectivity of NH29 on other relevant Kv channels expressed in Xenopus oocytes was also studied, and the results are summarized in Table 3 below. The specificity of NH29 at 25 μM and 50 μM towards various Kv channels was tested in Xenopus oocytes, except for Kv1.2 which was checked in transfected CHO cells. The current amplitude of the various Kv channels was tested at the indicated voltages and the effect of the drugs was expressed as fold of the control amplitude measured under the same conditions in the absence of the drug. The data in Table 3 are expressed as mean±SEM of 5-7 separate experiments.

TRPV6 channel = target: T2, TRPV6 channel (Homo sapiens, UniProt Q9H1D0); assay: TRPV6 currents in transfected CHO cells; type: cell-based; conditions: 25 μM NH29; −80 mV to 100 mV
T2 construct: expressed in transfected cells; host or cells: CHO cells
Description: FIGS. 15A-C present the lack of effect of NH29, an exemplary compound according to some embodiments of the present invention, on TRPV6 channel. FIG. 15A presents superimposed representative traces recorded from a CHO cell transfected with TRPV6 before (marked control) during (marked 165s) and after (marked wash) external application of 25 μM NH29, and wherein the membrane potential was stepped from −80 mV to 100 mV for 40 seconds pulse duration (protocol shown in upper panel). The current amplitude was measured at peak current points (marked a 1 at −80 mV and a2 at +100 mV) and plotted as a function of recording time (FIGS. 15B and 15C respectively).
Chinese hamster ovary (CHO) cells were grown in Dulbecco's modified Eagle's medium (DMEM) supplemented with 2 mM glutamine, 10% fetal calf serum and antibiotics. Briefly, 40,000 cells seeded on poly-D-lysine-coated glass coverslips (13 mm diameter) in a 24-multiwell plate were transfected with pIRES-CD8 (0.5 μg) as a marker for transfection, and with Kv7.2 (0.5 μg) and Kv7.3 (0.5 μg) or TRPV1 […] or TRPV6 […].
For electrophysiology, transfected cells were visualized approximately 40 hours following transfection, using anti-CD8 antibody-coated beads. Transfection was performed using Fugene 6 (Roche, Indianapolis Ind., USA) according to the manufacturer's protocol. […]

KCNQ2 mutant R198A = target: T3, KCNQ2 mutant R198A (Homo sapiens, UniProt O43526, R198A); assay: KCNQ2 S4 mutant R198A; type: cell-based; conditions: 25 μM NH29 (25 M [sic])
T3 construct: expressed in transfected cells
Excerpt: FIGS. 12A-F present the potentiating effect of NH29, an exemplary channel opener compound according to embodiments of the present invention, on selected KCNQ2 mutants. Shown are bar diagrams comparing the potentiating effect of NH29 on native KCNQ2 and KCNQ2 mutants, wherein the mutated amino acids are located at the S1-S2 helix region (FIG. 12A) or S4 helix region (FIG. 12D) and wherein the opener effect is expressed as percent of the control current in the absence of the opener. For comparison, marked as a green line, is the observed current increase of native KCNQ2 by NH29. FIGS. 12B 12C, 12E and 12F present representative traces recorded from CHO cell transfected with the KCNQ2 mutant S122A, S121A, L206C and R201A respectively, before and after external application of 25 μM of NH29 and wherein the membrane potential was stepped from −90 mV holding potential to −40 mV for 1.5 seconds pulse duration.
Voltage-clamp recordings in CHO cells were performed, using the whole-cell configuration of the patch-clamp technique. Signals were amplified using an Axopatch 200B patch-clamp amplifier (Molecular Devices, Sunnyvale, Calif.), sampled at 2 kHz and filtered at 800 Hz via a 4-pole Bessel low pass filter. […] Series resistances (3-13 MΩ) were compensated (75-90%) and periodically monitored.

IKS = target: T4, IKS (Homo sapiens, UniProt P51787); assay: Kv channel selectivity, Xenopus oocytes: IKS; type: cell-based; conditions: +30 mV
T4 construct: expressed in transfected cells; host or cells: Xenopus oocytes
Description: as §1, §2

hippocampal neurons = assay: Current-clamp recordings in cultured hippocampal neurons; type: cell-based, rat
Description: For hippocampal neuronal cultures, Sprague-Dawley rat embryos (E18) were removed by caesarian section and their hippocampi were dissected out. The tissue was digested with papain for 20 min, triturated to a single-cell suspension, and plated at a density of 40,000 cells per ml on a substrate of bovine collagen type IV and 100 μg/ml poly-L-lysine in 13 mm diameter glass coverslips of a 24-multiwell plate. The culture medium consisted of Modified Eagle's Medium containing 5% horse serum (Biological Industries, Beit HaEmek, Israel), B-27 neuronal supplement (Invitrogen, Carlsbad, Calif.), 100 U/ml penicillin, 100 μg/ml streptomycin, and 2 mM glutamine. D-glucose was supplemented to a final concentration of 6 g/l. Cytosine-1-D-arabinofuranoside (5 μM) was added after 5 days to arrest glial cell proliferation.
For electrophysiological recordings hippocampal neurons were used at 10-14 days in culture. All cultures were maintained at 37° C. in humidified air containing 5% CO2.
For current-clamp recordings in primary cultured neurons, the patch pipettes were filled with (in mM): 135 KCl, 1 K2ATP, 1 MgATP, 2 EGTA, 1.1 CaCl2, 5 glucose, 10 HEPES, adjusted with KOH at pH 7.4 (315 mOsm). […] A liquid junction potential of about −15.6 mV was measured between the intracellular and saline solutions and corrected on-line. […]

T1 sequence (P51787 whole entry): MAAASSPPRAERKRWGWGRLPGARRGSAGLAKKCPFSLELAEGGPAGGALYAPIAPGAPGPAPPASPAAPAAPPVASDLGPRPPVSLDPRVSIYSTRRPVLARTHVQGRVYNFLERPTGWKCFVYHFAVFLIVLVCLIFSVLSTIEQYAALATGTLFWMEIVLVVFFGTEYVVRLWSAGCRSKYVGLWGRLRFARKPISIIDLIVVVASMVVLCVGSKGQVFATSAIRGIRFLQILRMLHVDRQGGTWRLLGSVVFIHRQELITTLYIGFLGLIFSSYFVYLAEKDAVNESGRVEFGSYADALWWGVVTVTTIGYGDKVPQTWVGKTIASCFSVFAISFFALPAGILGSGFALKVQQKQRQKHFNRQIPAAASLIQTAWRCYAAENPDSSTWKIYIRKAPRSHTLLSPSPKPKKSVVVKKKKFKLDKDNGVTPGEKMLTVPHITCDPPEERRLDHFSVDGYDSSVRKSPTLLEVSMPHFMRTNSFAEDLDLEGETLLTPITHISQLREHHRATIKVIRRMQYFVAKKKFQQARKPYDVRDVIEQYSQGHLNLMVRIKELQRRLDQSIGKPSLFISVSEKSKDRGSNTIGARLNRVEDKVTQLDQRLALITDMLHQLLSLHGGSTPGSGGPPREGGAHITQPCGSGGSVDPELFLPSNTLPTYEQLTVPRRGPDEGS
T2 sequence (Q9H1D0 whole entry): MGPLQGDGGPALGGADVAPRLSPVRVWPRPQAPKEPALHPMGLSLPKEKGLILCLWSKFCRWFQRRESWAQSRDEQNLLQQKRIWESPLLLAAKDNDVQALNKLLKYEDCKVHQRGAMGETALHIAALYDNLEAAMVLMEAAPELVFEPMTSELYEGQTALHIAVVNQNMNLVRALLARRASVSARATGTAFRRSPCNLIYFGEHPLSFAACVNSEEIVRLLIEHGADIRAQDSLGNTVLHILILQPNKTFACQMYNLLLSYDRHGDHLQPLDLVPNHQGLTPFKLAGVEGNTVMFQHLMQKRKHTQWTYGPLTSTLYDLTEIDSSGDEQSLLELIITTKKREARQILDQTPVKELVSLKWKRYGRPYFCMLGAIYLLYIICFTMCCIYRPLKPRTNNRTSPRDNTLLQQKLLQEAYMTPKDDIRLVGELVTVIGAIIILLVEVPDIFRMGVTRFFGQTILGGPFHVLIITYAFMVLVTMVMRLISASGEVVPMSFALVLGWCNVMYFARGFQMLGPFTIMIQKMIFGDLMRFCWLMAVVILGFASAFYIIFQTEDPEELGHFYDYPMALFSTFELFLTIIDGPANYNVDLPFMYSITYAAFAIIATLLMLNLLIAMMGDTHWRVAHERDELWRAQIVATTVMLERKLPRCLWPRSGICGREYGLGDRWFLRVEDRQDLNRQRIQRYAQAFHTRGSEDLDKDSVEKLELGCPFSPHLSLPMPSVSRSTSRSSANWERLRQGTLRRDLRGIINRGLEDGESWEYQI
T4 sequence (P51787 whole entry): as the sequence (P51787 whole entry) above
T3 sequence (O43526 whole entry R198A): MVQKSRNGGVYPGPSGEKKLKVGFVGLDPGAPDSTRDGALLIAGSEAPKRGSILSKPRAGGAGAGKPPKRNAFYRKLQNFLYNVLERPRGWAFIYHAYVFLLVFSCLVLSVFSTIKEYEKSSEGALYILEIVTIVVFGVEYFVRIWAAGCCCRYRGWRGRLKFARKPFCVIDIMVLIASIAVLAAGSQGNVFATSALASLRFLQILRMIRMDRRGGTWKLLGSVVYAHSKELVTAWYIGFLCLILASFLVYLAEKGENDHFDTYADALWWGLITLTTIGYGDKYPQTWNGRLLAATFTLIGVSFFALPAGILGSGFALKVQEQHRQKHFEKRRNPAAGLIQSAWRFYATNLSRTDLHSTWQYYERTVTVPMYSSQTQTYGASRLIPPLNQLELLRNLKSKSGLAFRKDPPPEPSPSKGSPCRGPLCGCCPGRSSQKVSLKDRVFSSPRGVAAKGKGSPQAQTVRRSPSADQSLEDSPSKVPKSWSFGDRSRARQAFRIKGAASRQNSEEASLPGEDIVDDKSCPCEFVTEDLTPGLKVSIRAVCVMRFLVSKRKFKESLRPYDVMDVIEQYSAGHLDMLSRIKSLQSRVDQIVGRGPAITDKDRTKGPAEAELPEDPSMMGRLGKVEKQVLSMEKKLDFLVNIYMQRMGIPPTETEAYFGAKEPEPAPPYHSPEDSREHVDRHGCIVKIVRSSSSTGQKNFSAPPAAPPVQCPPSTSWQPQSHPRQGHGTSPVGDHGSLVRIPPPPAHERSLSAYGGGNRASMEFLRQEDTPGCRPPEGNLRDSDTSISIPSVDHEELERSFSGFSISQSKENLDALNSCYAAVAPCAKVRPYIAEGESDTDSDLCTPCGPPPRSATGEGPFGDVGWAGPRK

Compound | Fold current amplitude (Kv 7.1; 25 μM) [fold] | Fold current amplitude (Kv 7.1; 50 μM) [fold] | inhibition at 50 µM (Kv 7.1; 50 μM, read-out: inhibition of Kv7.1 current) [%] | modulation of TRPV6 current (TRPV6 channel) | fold enhancement of current (KCNQ2 mutant R198A) [fold] | Fold current amplitude (IKS; 25 μM) [fold] | Fold current amplitude (IKS; 50 μM) [fold] | number of evoked action potentials (hippocampal neurons; 25 μM NH25, 75-200 pA for 400 ms, control 9.6±1.0, n=8) | hyperpolarization of resting membrane potential (hippocampal neurons; NH25) [mV]
O=C(Cc1cc([N+](=O)[O-])cc([N+](=O)[O-])c1Nc1c(Cl)cc([N+](=O)[O-])cc1Cl)NCCO [NH29] | 0.93 ± 0.02 | 0.72 ± 0.02 | 23 | lack of modulation; also recorded: no similar inhibition of TRPV6 was observed | 1.6 | 1.02 ± 0.04 | 0.97 ± 0.04 |  | 
O=C(Cc1cc([N+](=O)[O-])ccc1Nc1c(Cl)cccc1Cl)OCCO [NH25] |  |  |  |  |  |  |  | 2.1±0.5 | −8.5
